# Data as given in ChEMBL document CHEMBL3885881, “DrugMatrix”.
# Species: Rattus norvegicus
# Experiment: DrugMatrix - Regimen: Daily Repeat
# Type: toxicity, organism-based, Sprague-Dawley
# Parameters: regimen Daily Repeat, gender Male, age 6-8 weeks
# Settings: in vivo, po, […], route oral GAVAGE; for ABSOLUTE BASOPHIL / ABSOLUTE EOSINOPHIL / ABSOLUTE LYMPHOCYTE / ABSOLUTE MONOCYTE / ABSOLUTE SEGMENTED NEUTROPHIL / BASOPHIL / EOSINOPHIL / ERYTHROCYTE COUNT / HEMATOCRIT / HEMOGLOBIN / LEUKOCYTE COUNT / LYMPHOCYTE / MEAN CORPUSCULAR HEMOGLOBIN / MEAN CORPUSCULAR HEMOGLOBIN CONCENTRATION / MEAN CORPUSCULAR VOLUME / MONOCYTE / NEUTROPHIL / NUCLEATED RED BLOOD CELLS / PLATELET COUNT: tissue Blood; for ALANINE AMINOTRANSFERASE / ALKALINE PHOSPHATASE / ASPARTATE AMINOTRANSFERASE / BLOOD UREA NITROGEN / CARBON DIOXIDE / CHLORIDE / CHOLESTEROL / CREATINE PHOSPHOKINASE / CREATININE / GLUCOSE / LACTATE DEHYDROGENASE / LIPASE / PHOSPHORUS / POTASSIUM / SODIUM / TOTAL BILIRUBIN / TOTAL PROTEIN / URIC ACID: tissue Plasma
# [1] = 100 mg/kg, dose level Low, time 7 day
# [2] = 700 mg/kg, 72 h, dose level High, time 3 day
# [3] = 700 mg/kg, dose level High, time 7 day
structure (smiles),measurement,setting,value
Cc1ccc(C)c(OCCCC(C)(C)C(=O)O)c1 [GEMFIBROZIL],ABSOLUTE BASOPHIL,[1],0 CELLS/uL
same,ABSOLUTE EOSINOPHIL,[1],45.5 CELLS/uL
same,ABSOLUTE LYMPHOCYTE,[1],9460.33 CELLS/uL
same,ABSOLUTE MONOCYTE,[1],128.67 CELLS/uL
same,ABSOLUTE SEGMENTED NEUTROPHIL,[1],965.5 CELLS/uL
same,BASOPHIL,[1],0%
same,EOSINOPHIL,[1],0.5%
same,ERYTHROCYTE COUNT,[1],5.75 x10E6/uL
same,HEMATOCRIT,[1],35.7%
same,HEMOGLOBIN,[1],13.7 G/DL
same,LEUKOCYTE COUNT,[1],10.6 x10E3/uL
same,LYMPHOCYTE,[1],89.83%
same,MEAN CORPUSCULAR HEMOGLOBIN,[1],23.82 pg
same,MEAN CORPUSCULAR HEMOGLOBIN CONCENTRATION,[1],38.42 G/DL
same,MEAN CORPUSCULAR VOLUME,[1],62.1 fL
same,MONOCYTE,[1],1.17%
same,NEUTROPHIL,[1],8.5%
same,NUCLEATED RED BLOOD CELLS,[1],0 /100WBC
same,PLATELET COUNT,[1],1237.17 x10E3/uL
same,ALANINE AMINOTRANSFERASE,[1],75.17 u/L
same,ALKALINE PHOSPHATASE,[1],388.67 u/L
same,ASPARTATE AMINOTRANSFERASE,[1],80.67 u/L
same,BLOOD UREA NITROGEN,[1],15.5 mg/dL
same,CARBON DIOXIDE,[1],29.17 mmol/L
same,CHLORIDE,[1],103.5 MEQ/L
same,CHOLESTEROL,[1],70.33 mg/dL
same,CREATINE PHOSPHOKINASE,[1],220 u/L
same,CREATININE,[1],0.26 mg/dL
same,GLUCOSE,[1],138.5 mg/dL
same,LACTATE DEHYDROGENASE,[1],151.33 u/L
same,LIPASE,[1],11.5 u/L
same,PHOSPHORUS,[1],10.83 mg/dL
same,POTASSIUM,[1],6.07 MEQ/L
same,SODIUM,[1],145.42 MEQ/L
same,TOTAL BILIRUBIN,[1],0.15 mg/dL
same,TOTAL PROTEIN,[1],6.55 G/DL
same,URIC ACID,[1],0.9 mg/dL
same,ABSOLUTE BASOPHIL,[2],0 CELLS/uL
same,ABSOLUTE EOSINOPHIL,[2],123.83 CELLS/uL
same,ABSOLUTE LYMPHOCYTE,[2],14360.17 CELLS/uL
same,ABSOLUTE MONOCYTE,[2],300 CELLS/uL
same,ABSOLUTE SEGMENTED NEUTROPHIL,[2],899.33 CELLS/uL
same,BASOPHIL,[2],0%
same,EOSINOPHIL,[2],0.83%
same,ERYTHROCYTE COUNT,[2],5.5 x10E6/uL
same,HEMATOCRIT,[2],34.9%
same,HEMOGLOBIN,[2],13.82 G/DL
same,LEUKOCYTE COUNT,[2],15.68 x10E3/uL
same,LYMPHOCYTE,[2],91.67%
same,MEAN CORPUSCULAR HEMOGLOBIN,[2],25.13 pg
same,MEAN CORPUSCULAR HEMOGLOBIN CONCENTRATION,[2],39.6 G/DL
same,MEAN CORPUSCULAR VOLUME,[2],63.5 fL
same,MONOCYTE,[2],1.83%
same,NEUTROPHIL,[2],5.67%
same,NUCLEATED RED BLOOD CELLS,[2],0 /100WBC
same,PLATELET COUNT,[2],1197.17 x10E3/uL
same,ALANINE AMINOTRANSFERASE,[2],74.67 u/L
same,ALKALINE PHOSPHATASE,[2],606 u/L
same,ASPARTATE AMINOTRANSFERASE,[2],80.5 u/L
same,BLOOD UREA NITROGEN,[2],11.33 mg/dL
same,CARBON DIOXIDE,[2],30.67 mmol/L
same,CHLORIDE,[2],101.5 MEQ/L
same,CHOLESTEROL,[2],61 mg/dL
same,CREATINE PHOSPHOKINASE,[2],247.5 u/L
same,CREATININE,[2],0.21 mg/dL
same,GLUCOSE,[2],143.5 mg/dL
same,LACTATE DEHYDROGENASE,[2],254.17 u/L
same,LIPASE,[2],9.67 u/L
same,PHOSPHORUS,[2],8.5 mg/dL
same,POTASSIUM,[2],6.29 MEQ/L
same,SODIUM,[2],141.78 MEQ/L
same,TOTAL BILIRUBIN,[2],0.32 mg/dL
same,TOTAL PROTEIN,[2],5.85 G/DL
same,URIC ACID,[2],1.33 mg/dL
same,ABSOLUTE BASOPHIL,[3],0 CELLS/uL
same,ABSOLUTE EOSINOPHIL,[3],34.5 CELLS/uL
same,ABSOLUTE LYMPHOCYTE,[3],11212.67 CELLS/uL
same,ABSOLUTE MONOCYTE,[3],304.17 CELLS/uL
same,ABSOLUTE SEGMENTED NEUTROPHIL,[3],1732 CELLS/uL
same,BASOPHIL,[3],0%
same,EOSINOPHIL,[3],0.5%
same,ERYTHROCYTE COUNT,[3],5.46 x10E6/uL
same,HEMATOCRIT,[3],32.9%
same,HEMOGLOBIN,[3],12.75 G/DL
same,LEUKOCYTE COUNT,[3],13.28 x10E3/uL
same,LYMPHOCYTE,[3],85.5%
same,MEAN CORPUSCULAR HEMOGLOBIN,[3],23.43 pg
same,MEAN CORPUSCULAR HEMOGLOBIN CONCENTRATION,[3],38.82 G/DL
same,MEAN CORPUSCULAR VOLUME,[3],60.37 fL
same,MONOCYTE,[3],2.17%
same,NEUTROPHIL,[3],11.83%
same,NUCLEATED RED BLOOD CELLS,[3],0 /100WBC
same,PLATELET COUNT,[3],1336.17 x10E3/uL
same,ALANINE AMINOTRANSFERASE,[3],90.83 u/L
same,ALKALINE PHOSPHATASE,[3],504.17 u/L
same,ASPARTATE AMINOTRANSFERASE,[3],94.83 u/L
same,BLOOD UREA NITROGEN,[3],12.17 mg/dL
same,CARBON DIOXIDE,[3],31.17 mmol/L
same,CHLORIDE,[3],101.17 MEQ/L
same,CHOLESTEROL,[3],60.5 mg/dL
same,CREATINE PHOSPHOKINASE,[3],391.67 u/L
same,CREATININE,[3],0.29 mg/dL
same,GLUCOSE,[3],135.67 mg/dL
same,LACTATE DEHYDROGENASE,[3],275.5 u/L
same,LIPASE,[3],12 u/L
same,PHOSPHORUS,[3],9.5 mg/dL
same,POTASSIUM,[3],5.98 MEQ/L
same,SODIUM,[3],142.85 MEQ/L
same,TOTAL BILIRUBIN,[3],0.22 mg/dL
same,TOTAL PROTEIN,[3],6.58 G/DL
same,URIC ACID,[3],0.87 mg/dL
